# Test results reported in US6599529B1, “Modified release multiple-units compositions of non-steroid anti-inflammatory drug substances (NSAIDs)” (Nycomed Danmark A/S, priority 1997, dated 2003).
# How the values were obtained:
# [1] = Solubility in 0.1 N HCl / water; assay type: physicochemical
# [2] = cited from earlier work
# [3] = in water and 0.1 N HCl at room temperature; cited from earlier work
"solubility ([1]; at a pH corresponding to 0.1 N HCl, room temperature)",solubility ([1]; in 0.1 N HCl (aqueous solution of 0.1 N hydrochloric acid)) [mg/100 ml],SMILES,pKa value [2],solubility (in words) [3]
less than 1 mg/100 ml,< 1,CN1C(C(=O)Nc2ccccn2)=C(O)c2sc(Cl)cc2S1(=O)=O [lornoxicam],about 4.7,
,,CC(=O)Oc1ccccc1C(=O)O [acetylsalicylic acid],,practically insoluble
,,COc1ccc2c(c1)c(CC(=O)O)c(C)n2C(=O)c1ccc(Cl)cc1 [indometacin],,practically insoluble
